Assay results taken from the NIST ThermoML archive (doi:10.1021/je7003758).
± gives the expanded uncertainty stated by the source.

Assay: xn = mol fraction of the nth substance listed
Conditions: 298.15 K, Liquid

ClCCCCCl [1,4-dichlorobutane] + CN1CCCC1=O
mass density [kg/m3]
Conditions | x2 = 0.1039 | x2 = 0.2034 | x2 = 0.3036 | x2 = 0.402 | x2 = 0.5025 | x2 = 0.5968 | x2 = 0.7003 | x2 = 0.8008 | x2 = 0.8971
100 kPa | 1123.8 ± 2.9 | 1114.2 ± 2.5 | 1104.3 ± 2.1 | 1094.4 ± 1.8 | 1084 ± 1.5 | 1073.9 ± 1.2 | 1062.7 ± 1 | 1051.4 ± 0.8 | 1040.2 ± 0.7
500 kPa | 1124.1 ± 2.9 | 1114.6 ± 2.5 | 1104.6 ± 2.1 | 1094.7 ± 1.8 | 1084.2 ± 1.5 | 1074.2 ± 1.3 | 1062.9 ± 1 | 1051.6 ± 0.8 | 1040.4 ± 0.7
1000 kPa | 1124.5 ± 3 | 1114.9 ± 2.5 | 1104.9 ± 2.2 | 1095 ± 1.8 | 1084.5 ± 1.5 | 1074.5 ± 1.3 | 1063.2 ± 1 | 1051.9 ± 0.9 | 1040.7 ± 0.7
1500 kPa | 1124.9 ± 3 | 1115.2 ± 2.6 | 1105.3 ± 2.2 | 1095.3 ± 1.8 | 1084.8 ± 1.5 | 1074.8 ± 1.3 | 1063.6 ± 1.1 | 1052.2 ± 0.9 | 1041 ± 0.7
2000 kPa | 1125.2 ± 3 | 1115.6 ± 2.6 | 1105.7 ± 2.2 | 1095.7 ± 1.9 | 1085.2 ± 1.6 | 1075.1 ± 1.3 | 1063.8 ± 1.1 | 1052.5 ± 0.9 | 1041.3 ± 0.7
2500 kPa | 1125.5 ± 3 | 1115.9 ± 2.6 | 1106 ± 2.2 | 1096 ± 1.9 | 1085.5 ± 1.6 | 1075.4 ± 1.3 | 1064.1 ± 1.1 | 1052.8 ± 0.9 | 1041.6 ± 0.7
2900 kPa | – | – | 1106.3 ± 2.3 | – | – | – | – | – | –
3000 kPa | 1125.9 ± 3.1 | 1116.3 ± 2.7 | – | 1096.3 ± 1.9 | 1085.8 ± 1.6 | 1075.7 ± 1.4 | 1064.4 ± 1.1 | 1053 ± 0.9 | 1041.8 ± 0.8
3500 kPa | 1126.3 ± 3.1 | 1116.6 ± 2.7 | 1106.6 ± 2.3 | 1096.7 ± 1.9 | 1086.1 ± 1.6 | 1076 ± 1.4 | 1064.7 ± 1.1 | 1053.4 ± 0.9 | 1042.1 ± 0.8
4000 kPa | 1126.7 ± 3.1 | 1117 ± 2.7 | 1107 ± 2.3 | 1097 ± 2 | 1086.4 ± 1.7 | 1076.4 ± 1.4 | 1065 ± 1.1 | 1053.6 ± 0.9 | 1042.3 ± 0.8
4500 kPa | 1127 ± 3.2 | 1117.3 ± 2.7 | 1107.4 ± 2.3 | 1097.3 ± 2 | 1086.8 ± 1.7 | 1076.6 ± 1.4 | 1065.3 ± 1.2 | 1053.9 ± 1 | 1042.7 ± 0.8
4900 kPa | 1127.3 ± 3.2 | – | – | – | – | 1076.9 ± 1.4 | – | – | –
5000 kPa | – | 1117.7 ± 2.8 | 1107.7 ± 2.4 | 1097.6 ± 2 | 1087.1 ± 1.7 | – | 1065.6 ± 1.2 | 1054.2 ± 1 | 1042.9 ± 0.8
5500 kPa | 1127.7 ± 3.2 | 1118 ± 2.8 | 1108 ± 2.4 | 1098 ± 2 | 1087.4 ± 1.7 | 1077.2 ± 1.5 | 1065.9 ± 1.2 | 1054.4 ± 1 | 1043.1 ± 0.8
5900 kPa | 1128.1 ± 3.3 | – | – | – | 1087.7 ± 1.7 | – | – | – | –
6000 kPa | – | 1118.4 ± 2.8 | 1108.3 ± 2.4 | 1098.3 ± 2.1 | – | 1077.6 ± 1.5 | 1066.2 ± 1.2 | 1054.8 ± 1 | 1043.5 ± 0.8
6500 kPa | 1128.4 ± 3.3 | 1118.8 ± 2.9 | 1108.7 ± 2.5 | 1098.6 ± 2.1 | 1088 ± 1.8 | 1077.8 ± 1.5 | 1066.5 ± 1.2 | 1055 ± 1 | 1043.7 ± 0.8
7000 kPa | 1128.8 ± 3.3 | 1119.1 ± 2.9 | 1109 ± 2.5 | 1099 ± 2.1 | 1088.4 ± 1.8 | 1078.2 ± 1.5 | 1066.8 ± 1.3 | 1055.3 ± 1 | 1044 ± 0.8
7400 kPa | – | – | – | – | – | – | – | – | 1044.2 ± 0.9
7500 kPa | – | 1119.5 ± 2.9 | 1109.4 ± 2.5 | 1099.3 ± 2.2 | 1088.6 ± 1.8 | 1078.5 ± 1.5 | 1067.1 ± 1.3 | 1055.6 ± 1 | –
7600 kPa | 1129.2 ± 3.4 | – | – | – | – | – | – | – | –
7900 kPa | – | – | – | – | 1089 ± 1.8 | – | – | – | –
8000 kPa | 1129.5 ± 3.4 | 1119.8 ± 3 | 1109.7 ± 2.5 | 1099.6 ± 2.2 | – | 1078.8 ± 1.6 | 1067.4 ± 1.3 | 1055.9 ± 1.1 | 1044.5 ± 0.9
8400 kPa | 1129.8 ± 3.4 | – | – | – | – | – | – | – | –
8500 kPa | – | 1120.1 ± 3 | 1110.1 ± 2.6 | 1099.9 ± 2.2 | 1089.3 ± 1.9 | 1079.1 ± 1.6 | 1067.6 ± 1.3 | 1056.2 ± 1.1 | 1044.8 ± 0.9
8900 kPa | 1130.2 ± 3.5 | – | – | – | – | – | – | – | –
9000 kPa | – | 1120.5 ± 3 | 1110.4 ± 2.6 | 1100.3 ± 2.2 | 1089.6 ± 1.9 | 1079.4 ± 1.6 | 1068 ± 1.3 | 1056.4 ± 1.1 | 1045.1 ± 0.9
9400 kPa | – | – | – | – | – | – | – | – | 1045.3 ± 0.9
9500 kPa | 1130.6 ± 3.5 | 1120.8 ± 3.1 | 1110.7 ± 2.6 | 1100.3 ± 2.3 | 1089.9 ± 1.9 | 1079.7 ± 1.6 | 1068.2 ± 1.3 | 1056.7 ± 1.1 | –
10000 kPa | 1131 ± 3.6 | 1121.3 ± 3.1 | 1111.1 ± 2.7 | 1101 ± 2.3 | – | – | – | – | –
